According to patent US11505548B2, “Heterocyclic compounds and their use for treatment of helminthic infections and diseases” (Celgene Corporation, priority 2019, dated 2022):

Columns and labels:
[1] = test system: L. sigmodontis microfilariae; experiment: Parasite motility assay, L. sigmodontis microfilariae; assay type: cell-based, Litomosoides sigmodontis; details: in vitro motility, active at compound concentrations below 1 μM
B. pahangi adult worms = experiment: Parasite motility assay, adult B. pahangi; assay type: cell-based, Brugia pahangi; details: in vitro motility, active at compound concentrations below 1 μM
Description: Parasite Motility Assays. Adult and microfilariae B. malayi and B. pahangi parasites, harvested from infected jirds, were procured from the NIAID/NIH Filariasis Research Reagent Resource Center (FR3). […] (Athens, Ga.). Adult worms were plated in 24-well plates with 2 mL of Advanced RPMI 1640 medium (Invitrogen) supplemented with 25 mM HEPES, 2 mM L-Glutamine (Invitrogen), 100 U/mL Penicillin (Invitrogen), 100 µg/mL Streptomycin (Invitrogen), […] Amphotericin B solution (Invitrogen), and 5% heat inactivated fetal bovine serum and placed in a 37° C. humidified incubator with 5% CO2. After 24 h, adult worms were selected based upon motility as described below. After scoring for motility, 4-6 highly motile worms were selected for each treatment group and were transferred to new plates. Microfilariae were centrifuged at 5000×g for 5 min, and re-suspended in 2 ml of media. Microfilarial density was determined using a hemocytometer and were plated in a 96-well plate at 80 microfilariae/well with 200 μL of complete media. Treatment groups received compounds (0.1% DMSO) at 1 μM and 100 nM with 0.1% DMSO as a vehicle control. Cultures were incubated at 37° C. in a humidified incubator with 5% CO2. […] The motility of the worms and microfilariae were evaluated every 24 h and analyzed by a one sided unpaired Student's t-test using Microsoft Excel. […]

[2] = test system: Onchocerca gutturosa Adult Male Worms; experiment: Onchocerciasis in vitro screening model, worm motility score; assay type: cell-based; details: in vitro; Onchocerca gutturosa adult male worms; class A/B/C; read-out: O. gutturosa activity level (IC50 or MED)
[3] = test system: L. sigmodontis adult worms; experiment: Parasite motility assay, adult L. sigmodontis; assay type: cell-based, Litomosoides sigmodontis; details: in vitro motility, active at compound concentrations below 1 μM

Substance: 2-(3-(5-isoprop- oxypyridin-2- yl)-1,2,4- thiadiazol-5- ylamino)-N,N- dimethyl-5- (trifluoromethyl) nicotinamide [Compound 250]
- L. sigmodontis activity against microfilaria (level D) [1]: D (activity against microfilaria at compound concentrations below 1 μM (activity level D))
- B. pahangi activity against adult filaria (level E) (B. pahangi adult worms): E (activity against adult filaria at compound concentrations below 1 μM (activity level E))
- IC50 [2]: 500 to 5000 nM
- L. sigmodontis activity against adult filaria (level E) [3]: E (activity against adult filaria at compound concentrations below 1 μM (activity level E))
